In US20250319107A1, “USE OF CANNABIDIOL AND CLOBAZAM IN THE TREATMENT OF CHILDHOOD-ONSET EPILEPSY SYNDROMES” (GW Research Limited, priority 2021, published 2025):

Tests used:
[1] = tested on: patients with LGS or DS; experiment: Phase 3 randomized controlled trials of CBD versus placebo, adverse reactions in DS and LGS patients; type: in vivo, human; conditions: for Subjects with pneumonia, %: LGS and DS; for Pneumonia incidence: controlled trials
Text: (§1) Randomized, double-blind, parallel-group, trials of CBD versus placebo were undertaken and the adverse event experienced by the patients were collated and investigated.
(§2) In summary patients completed a 1-week screening period and a 4-week baseline period before they were randomized to receive CBD or equivalent volumes of placebo. Randomization was stratified by age.
(§3) Patients began a 4-week dose escalation period, titrating up to their assigned dose, before continuing on a stable dose of blinded investigational medicinal product (IMP) for 12 or 14 weeks.
(§4) Dose escalation for each patient was subject to the investigator's assessment of safety and tolerability. If a dose became poorly tolerated, the investigator may consider temporarily or permanently reducing the dose for the remainder of the study.
(§5) Clinic visits occurred for screening (Day-35), baseline (Day-28), randomization (Day 1) and, on Days 15 and 29 during titration and on Days 43, 57, 71 (telephone) and 85 until the end of treatment (Day 113). Safety telephone calls were completed every two days during titration, one week after the end of titration and, for patients not entering the open label extension (OLE), weekly from Visit 10 to Visit 12.
(§6) Safety and tolerability measures that were recorded included: adverse events; clinical laboratory parameters; 12-lead electrocardiogram (ECG); physical examination parameters (including height and weight); vital signs; Columbia-Suicide Severity Rating Scale (C-SSRS; 19+ years) or C-SSRS Children's (6-18 years) score, where applicable; number of inpatient hospitalizations due to epilepsy; abuse liability and effects on menstruation cycles (in females).
Table 1.1 below lists the adverse reactions that were reported in DS and LGS patients treated with CBD during the 14-week treatment period in the Phase 3 controlled trials.

[2] = tested on: adult patients with generalized epilepsy; conditions: eight adult patients with generalized epilepsy; cited from earlier work
[3] = tested on: patients with TSC; experiment: Phase 3 randomized controlled trial of CBD versus placebo, adverse reactions in TSC patients; type: in vivo, human; conditions: for Alanine aminotransferase increased, adverse reaction incidence / Anaemia, adverse reaction incidence / Aspartate aminotransferase increased, adverse reaction incidence / Decreased appetite, adverse reaction incidence / Diarrhoea, adverse reaction incidence / Eosinophil count increased, adverse reaction incidence / Fatigue, adverse reaction incidence / Gamma glutamyl transferase increased, adverse reaction incidence / Nausea, adverse reaction incidence / Pneumonia (grouped terms), adverse reaction incidence / Pyrexia, adverse reaction incidence / Rash, adverse reaction incidence / Somnolence, adverse reaction incidence / Urinary tract infection, adverse reaction incidence / Vomiting, adverse reaction incidence / Weight decreased, adverse reaction incidence / Subjects with pneumonia, %: TSC; for Alanine aminotransferase increased, adverse reaction incidence / Anaemia, adverse reaction incidence / Aspartate aminotransferase increased, adverse reaction incidence / Decreased appetite, adverse reaction incidence / Diarrhoea, adverse reaction incidence / Eosinophil count increased, adverse reaction incidence / Fatigue, adverse reaction incidence / Gamma glutamyl transferase increased, adverse reaction incidence / Nausea, adverse reaction incidence / Pneumonia (grouped terms), adverse reaction incidence / Pyrexia, adverse reaction incidence / Rash, adverse reaction incidence / Somnolence, adverse reaction incidence / Urinary tract infection, adverse reaction incidence / Vomiting, adverse reaction incidence / Weight decreased, adverse reaction incidence: 12-week treatment
Text: as §1, §2, §3, §4, §5, §6
Table 1.12 below lists the adverse reactions that were reported in TSC patients treated with CBD during the 12-week treatment period in the Phase 3 controlled trial.

[4] = tested on: institutionalized adult patients; conditions: 200 mg/day of pure CBD; twelve institutionalized adult patients; open label; cited from earlier work
[5] = tested on: adult patients; conditions: 200 mg/day of pure CBD; four adult patients; cited from earlier work
[6] = tested on: healthy adults and patients with LGS, DS, and TSC; experiment: Controlled studies, serum creatinine; type: in vivo, human
Text: CBD can cause elevations in serum creatinine. The mechanism has not yet been determined. In controlled studies in healthy adults and in patients with LGS, DS, and TSC, an increase in serum creatinine of approximately 10% was observed within 2 weeks of starting CBD-OS. The increase was reversible in healthy adults. Reversibility was not assessed in studies in LGS, DS, or TSC.

[7] = tested on: mice; conditions: after administration of pro-convulsant drugs or an electric current; cited from earlier work
[8] = tested on: patients with LGS, DS, or TSC; experiment: Double-blind placebo-controlled trials across LGS, DS and TSC, overall statements; type: in vivo, human
Text: as §1, §2, §3, §6

[9] = 50 mg/kg/day group (N = 73; one-third did not reach 50 mg/kg/day)

## C=C(C)[C@@H]1CCC(C)=C[C@H]1c1c(O)cc(CCCCC)cc1O [CBD, cannabidiol]
[1]; With CLB, 10 mg/kg/day, N1 = 85
  Subjects with pneumonia, %: 14.1%
[1]; With CLB, 20 mg/kg/day, N1 = 167
  Subjects with pneumonia, %: 7.2%
[1]; Without CLB, 20 mg/kg/day, N2 = 140
  Subjects with pneumonia, %: 2.9%
[1]; patients with LGS and DS, normal haemoglobin at baseline, later below lower limit of normal
  Patients who developed a new laboratory-defined anaemia during the study: 27%
[1]; patients with LGS or DS
  Discontinuation incidence for transaminase elevation: dose responsive
[1]; with clobazam, 10 mg/kg/day CBD
  Pneumonia incidence: 14%
[1]; with clobazam, 20 mg/kg/day CBD
  Pneumonia incidence: 7%
[1]; without concomitant clobazam, 10 mg/kg/day CBD
  Pneumonia incidence: 0%
[1]; without concomitant clobazam, 20 mg/kg/day CBD
  Pneumonia incidence: 3%
[2]
  Number of patients with a marked reduction of seizures: 4
[3]; 25 mg/kg/day (N = 75)
  Alanine aminotransferase increased, adverse reaction incidence: 12%
  Anaemia, adverse reaction incidence: 7%
  Aspartate aminotransferase increased, adverse reaction incidence: 11%
  Decreased appetite, adverse reaction incidence: 20%
  Diarrhoea, adverse reaction incidence: 31%
  Eosinophil count increased, adverse reaction incidence: 5%
  Fatigue, adverse reaction incidence: 5%
  Gamma glutamyl transferase increased, adverse reaction incidence: 16%
  Nausea, adverse reaction incidence: 9%
  Pneumonia (grouped terms), adverse reaction incidence: 4%
  Pyrexia, adverse reaction incidence: 19%
  Rash, adverse reaction incidence: 7%
  Somnolence, adverse reaction incidence: 13%
  Urinary tract infection, adverse reaction incidence: 5%
  Vomiting, adverse reaction incidence: 17%
  Weight decreased, adverse reaction incidence: 7%
[3]; 25 mg/kg/day, patients with TSC, normal haemoglobin at baseline, later below lower limit of normal
  Patients who developed a new laboratory-defined anaemia during the study: 38%
[3]; [9]
  Alanine aminotransferase increased, adverse reaction incidence: 22%
  Anaemia, adverse reaction incidence: 4%
  Aspartate aminotransferase increased, adverse reaction incidence: 19%
  Decreased appetite, adverse reaction incidence: 23%
  Diarrhoea, adverse reaction incidence: 56%
  Eosinophil count increased, adverse reaction incidence: 1%
  Fatigue, adverse reaction incidence: 6%
  Gamma glutamyl transferase increased, adverse reaction incidence: 14%
  Nausea, adverse reaction incidence: 3%
  Pneumonia (grouped terms), adverse reaction incidence: 3%
  Pyrexia, adverse reaction incidence: 16%
  Rash, adverse reaction incidence: 12%
  Somnolence, adverse reaction incidence: 26%
  Urinary tract infection, adverse reaction incidence: 1%
  Vomiting, adverse reaction incidence: 18%
  Weight decreased, adverse reaction incidence: 8%
[3]; With CLB, 25 mg/kg/day, N1 = 18
  Subjects with pneumonia, %: 16.7%
[3]; With CLB, 50 mg/kg/day, N1 = 20
  Subjects with pneumonia, %: 5.0%
[3]; Without CLB, 50 mg/kg/day, N2 = 53
  Subjects with pneumonia, %: 1.9%
[3]; controlled trial in TSC
  Discontinuation for transaminase elevation: dose responsive
[3]; with concomitant clobazam, 25 mg/kg/day, patients with TSC
  Pneumonia incidence: 17%
[3]; without clobazam, 25 mg/kg/day, patients with TSC
  Pneumonia incidence: 0%
[4]
  Control of seizures: ineffective
[5]
  Patients who became seizure free: two of the four
[6]; healthy adults
  Reversibility of the serum creatinine increase: reversible
[6]; within 2 weeks of starting CBD-OS, healthy adults and patients with LGS, DS, and TSC
  Increase in serum creatinine: approximately 10%
[7]
  Prevention of seizures: able to prevent seizures
[8]; CBD alone or in combination with clobazam, across all treatment groups
  Seizure frequency versus placebo: significant reduction
[8]; patients with LGS, DS, or TSC
  Decrease in weight: dose related
[8]; versus patients not taking clobazam, LGS, DS and TSC
  Incidence of pneumonia in patients concurrently taking clobazam in addition to CBD: significantly higher
